Source: PMC4901077, “Development and Identification of a Novel Anti-HIV-1 Peptide Derived by Modification of the N-Terminal Domain of HIV-1 Integrase” (Frontiers in Microbiology, 2016)
Like-named read-outs stand apart in the source and are kept apart here. Marks after values point to notes of the source that are not given here. Peptide text beside a SMILES is read from it.

Experiments:
[1] = biological target: T1, HIV-1 IN-IN subunit exchange (Human immunodeficiency virus type 1 group M subtype B, UniProt P04585); experiment: HTRF-based IN subunit exchange assay (IN-IN dimerization); assay type: binding; details: for IC50: concentration required to inhibit the HIV-1 IN-IN subunit exchange by 50%, HTRF, His- and FLAG-tagged IN; for IN-IN subunit exchange, percentage of control: measured in the presence of 100 μM concentration
T1 construct: Full-length IN and LEDGF proteins were expressed in E. coli BL21(DE3); made in house; host or cells: E. coli BL21(DE3)
Description: (§1) Full-length IN and LEDGF proteins were expressed in E. coli BL21(DE3) and were purified as described (Kessl et al., [2012]; Esposito et al., [2015]; Tintori et al., [2015]). His- and FLAG-tagged INs, were mixed in 25 mM Tris (pH 7.4) buffer containing 150 mM NaCl, 2 mM MgCl2, 0.1% Nonidet P-40, 1 mg/ml BSA. Test compounds were then added to the mixture. A mixture of anti-His6-XL665 and anti-FLAG-EuCryptate antibodies were then added to the reaction and, after an incubation, the plate are read and the HTRF signal is calculated from the 665/620 nm ratio.
(§2) In this assay two IN preparation are used: a first His-tagged IN preparation, and a second Flag-tagged IN preparation. In both preparations the purified IN is at equilibrium as a dimer; such dimers go through monomers exchange. […] The formation of this “hybrid” dimer can be monitored in the HTRF-based assay as described (Esposito et al., [2015]; Tintori et al., [2015]). When the assay is performed in the presence of a compound inhibiting dimerization, the HTRF signal decreases as the concentration of compound increases, whereas in the presence of a compound promoting IN multimerization (association of dimers) the HTRF signal increases as the concentration of the compound increases.

HIV-1 IN multimerization = biological target: T2, HIV-1 IN multimerization (Human immunodeficiency virus type 1 group M subtype B, UniProt P04585); experiment: HTRF-based IN multimerization assay; assay type: binding; details: for EC50: concentration stimulating the Multimerization Increase by 50%, HTRF, read-out: IN-multim MI50; for IN multimerization signal, % of control at 100 µM: measured in the presence of 100 μM concentration, read-out: IN-multim, percentage of control
T2 construct: Full-length IN and LEDGF proteins were expressed in E. coli BL21(DE3); made in house; host or cells: E. coli BL21(DE3)
Description: as §1, §2

[2] = biological target: T3, Full-length recombinant HIV-1 integrase (Human immunodeficiency virus type 1 group M subtype B, UniProt P04585); experiment: HIV-1 IN activity inhibition assay (Xpressbio HIV-1 IN Assay kit, 3'-processing/strand transfer); assay type: biochemical
T3 construct: Full-length recombinant HIV-1 integrase protein was then loaded onto this oligo substrate; purchased Xpressbio Life Science Products (Express Biotech International)
Description: Express Biotech International Company performed this assay using its HIV-1 IN Assay kit (Xpressbio Life Science Products, USA. www.xpressbio.com). Briefly, Streptavidin coated 96-well plates were coated with a double-stranded HIV-1 LTR U5 donor substrate (DS) oligonucleotide containing an end-labeled biotin. Full-length recombinant HIV-1 integrase protein was then loaded onto this oligo substrate. Compounds were added to the reaction and then a different double-stranded target substrate (TS) oligo containing 3′-end modifications was added to the plate. The sequence of DS DNA and TS DNA substrates used in this assay were
respectively (Hazuda et al., [1994] and Engelman et al., [1993]). The HIV-1 IN cleaves the terminal two bases from the exposed 3′-end of the HIV-1 LTR DS and then catalyzes a strand-transfer reaction to integrate the DS into the TS. The products of the reaction were detected colorimetrically using an HRP-labeled antibody directed against the TS 3′-end modification. Percent inhibition in the IN assay was calculated and IC50 values were determined.

[3] = Table 1, colorimetric HRP read-out, ±SD, read-out: IN inhibition IC50(μM) ±SD
[4] = Table 2, colorimetric HRP read-out, read-out: IN inhibition IC50

Row | Compound | IC50 [1] [µM] | IN-IN subunit exchange, percentage of control [1] | EC50 (HIV-1 IN multimerization) [µM] | IC50 [2, 3] [µM] | IC50 [2, 4] [µM] | IN multimerization signal, % of control at 100 µM (HIV-1 IN multimerization) [%]
1 | CCCC(C(=O)O)c1c(C)nc2ccc(Cl)cc2c1-c1ccccc1 (stereo not drawn) [LEDGIN-6, reference compound] | > 100 | >100 (100%) | 10 ± 1 |  |  | 
2 | CC[C@H](C)[C@H](NC(=O)[C@H](CCC(=O)O)NC(=O)[C@H](CCCCN)NC(C)=O)C(=O)N[C@H](C(=O)N[C@@H](C)C(=O)N[C@@H](CO)C(=O)N[C@@H](CS)C(=O)N[C@@H](CC(=O)O)C(=O)N[C@@H](CCCCN)C(=O)N[C@@H](CS)C(N)=O)C(C)C [Peptide 12] (Ac-KEIVASCDKC-NH2) |  |  |  | 477 ± 23 |  | 
3 | Ac-VVAAEIVAH-NH2 [Peptide 24] | 32 ± 3 |  | > 100 |  | 20.8 ± 1.3 | 100
4 | Ac-VFAKEIVAH-NH2 [Peptide 20] |  |  |  |  | 375 ± 19 | 
5 | Ac-GIDKAQDEHE-NH2 [Peptide 2] |  |  |  | 162 ± 9 |  | 
6 | Ac-VVAKAIVAH-NH2 [Peptide 25] | > 100 | >100 (100%) | 4.8 ± 0.4 |  | 13 ± 1 | 
7 | Ac-DFNLPPVVAK-NH2 [Peptide 9] |  |  |  | 213 ± 12 |  | 
8 | Ac-VVAKEIVAH-NH2 [Peptide 18] | > 100 | >100 (100%)^b | > 100 | 4.5 ± 0.9 |  | 100
9 | Ac-VVAKEIFAH-NH2 [Peptide 21] |  |  |  |  | 504 ± 22 | 
